# Measurements: article PMC12333026, “Versatile Imidazole Scaffold with Potent Activity against Multiple Apicomplexan Parasites” (ACS Infectious Diseases, 2025)
# Like-named read-outs stand apart in the source and are kept apart here.
# Assays:
# PfPKG [1] = molecular target: T1, PfPKG (Plasmodium falciparum, UniProt Q8I719); design: method as in number not shown in text; details: enantiomer comparison; recently reported by the authors, ref number not shown in text; cited from earlier work
# [2] = test system: T. gondii tachyzoites, parental control; test: Proliferation EC50, host fibroblast nuclei count, parental control; format: cell-based; details: Toxoplasma gondii
# Procedure: (§1) Human Foreskin Fibroblasts (HFF) were cultured in DMEM, with D-glucose (4.5 g/L), L-glutamine, and sodium pyruvate (110 mg/L) (Gibco) that were further supplemented with 10% Fetal Clone 1 serum (FCS)(HyClone), 50 U/mL penicillin (Gibco), […] streptomycin (Gibco), and 1× GlutaMax (Gibco). HFF cells were cultured in T25 flasks (Corning) in a humidified incubator at 37 °C and 5% CO2. For culture, media was replaced with DMEM, as described above, with 1% FCS. Mutant strains were created as described in.
# (§2) Presence of desired mutations in parasite lines, TgCDPK1^G128M, TgCDPK1^G128M + TgMAPKL1^L162Q and […] was verified through sequencing. Compounds were dissolved in DMSO and serially diluted 4-fold across the first 10 wells of a 96 well plate, with the highest drug concentration in the first column being 25 μM. The strain of was then added to the first 11 columns of the 96-well plate at a density of 4000 parasites per well. The 11th column contained no compounds, and the 12th column contained no parasites and no compound. After 5 days of incubation at 37 °C and 5% CO2, cells were washed with PBS and fixed with 4% PFA in PBS (Thermo Fisher Scientific, Waltham, MA, USA). After fixing, cells were washed three times with PBS and stained with 300 nM DAPI in PBS before being washed again three times with PBS.
# (§3) Images were acquired in an ImageXpress Pico Automated Cell Imaging System (Molecular Devices, San Jose, CA, USA) with a 4× objective using UV fluorescence. Following imaging, ImageXpress software was used to count objects with a fluorescence intensity ≥8 and a size of 12–30 μm, giving a total count of host cell nuclei for each well. EC50 were determined based on the number of remaining fibroblast nuclei using a nonlinear regression analysis with GraphPad Prism software version 10.0.0 for Windows, GraphPad Software, Boston, Massachusetts USA. Each compound was tested in ≥3 experiments in quadruplicate rows.
# [3] = test system: P. falciparum 3D7 (WT) asexual stage parasites; test: Growth inhibition assay, asexual stage parasites, WT 3D7; format: cell-based; details: Plasmodium falciparum; 3D7 asexual stage parasites, 72 h; mean ± SD, n = 1–2
# Procedure: (§4) lines were maintained with O+ human erythrocytes (BioIVT). WT 3D7A10 and T618Q parasites were kind gifts from Dr. David Fidock (Columbia University) and Dr. David Baker (London School of Tropical Medicine and Hygiene), respectively. Growth inhibition assays were performed as previously described. Parasites were grown in RPMI 1640 medium (Sigma-Aldrich, St. Louis, MO, U.S.A.) supplemented with 5 mg/mL Albumax (Gibco), 50 μg/mL hypoxanthine (Sigma-Aldrich), 2 mg/mL Na2CO3 (Sigma-Aldrich), 25 mM HEPES, and 50 μg/mL gentamicin (Gibco). The growth assay was initiated with cultures with >80% ring stage parasites, diluted to a parasitemia of 0.4% and a hematocrit of 1%. Parasites were transferred to a 96-well plate with test compounds, vehicle, or DHA as positive control, and maintained for 72 h in 5% CO2, 5% O2, and 90% N2 in a humidified chamber. Parasite viability at 72 h was determined by addition of SYBR Green I nucleic acid stain (Thermo Fisher Scientific, S7563) and Mitotracker Deep Red (Fisher M422426) followed by flow cytometry on a BD FACSVerse using BD FACSuite software. Data acquired were analyzed using Flowjo software. EC50 values were derived by nonlinear regression in Graph Pad Prism 7.
# [4] = test system: strain UGA1 expressing nanoluciferase, replication in HCT-8 cells; test: Growth inhibition assay in HCT-8 cells (nanoluciferase strain UGA1); format: cell-based, C. parvum; details: Cryptosporidium parvum, 48 h, nanoluciferase readout, (±SD), read-out: EC50 of replication measured in HCT-8 cells
# Procedure: strain UGA1 transfected to express nanoluciferase (Nluc) and obtained from the University of Arizona after propagation in newborn calves. HCT-8 cells were added to a 384-well plate and allowed to grow for 48 h to reach 75–90% confluence. The medium was removed, and test compounds were added in serial dilutions prior to the addition of 1000 oocysts per well in RPMI 1640 medium supplemented with 10% heat inactivated FBS and 1% penicillin streptomycin. Plates were incubated for 48 h; Nano-Glo luciferase reagent (Promega, Madison, WI) was then added, and the plates were read on an EnVision multilabel plate reader (PerkinElmer, Waltham, MA). EC50 curves were calculated as previously described using Prism v6.07 (GraphPad Software, La Jolla, CA).
# TgCDPK1-G128M = molecular target: T2, TgCDPK1-G128M (Toxoplasma gondii, UniProt Q9BJF5, G128M); test: CDPK enzyme activity assay, TgCDPK1 G128M; format: biochemical, T. gondii
# T2 construct: made in house
# T2 sequence (Q9BJF5 whole entry G128M): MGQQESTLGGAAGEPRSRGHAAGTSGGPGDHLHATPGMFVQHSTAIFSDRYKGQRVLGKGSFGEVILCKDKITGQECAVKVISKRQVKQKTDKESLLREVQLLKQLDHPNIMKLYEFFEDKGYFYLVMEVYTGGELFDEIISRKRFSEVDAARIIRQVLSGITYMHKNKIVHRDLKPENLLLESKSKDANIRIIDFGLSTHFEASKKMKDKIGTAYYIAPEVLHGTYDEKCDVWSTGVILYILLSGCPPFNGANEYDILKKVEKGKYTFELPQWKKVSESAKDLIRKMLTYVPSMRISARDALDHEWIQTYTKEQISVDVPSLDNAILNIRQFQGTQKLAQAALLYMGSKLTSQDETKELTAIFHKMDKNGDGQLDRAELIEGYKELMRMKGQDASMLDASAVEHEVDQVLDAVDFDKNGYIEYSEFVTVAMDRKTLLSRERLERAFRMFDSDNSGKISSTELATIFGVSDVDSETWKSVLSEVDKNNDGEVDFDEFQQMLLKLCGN
# Procedure: (§5) Recombinant expression of PfCDPK1, PfCDPK4, TgCDPK1 WT, TgCDPK1-G128M, CpCDPK1 and CpCDPK1-G152 M were purified as previously described. […] These reactions were performed in a buffer composed of 1 mM EGTA (pH 7.2), 10 mM MgCl2, 20 mM HEPES pH 7.5 (KOH), 0.1% BSA. The reactions were initiated with addition of 10 μM ATP and 2 mM CaCl2 as enzyme activation reagent. Reaction plates were incubated for 90 min with 90 rpm agitation at 30 °C. […] KinaseGlo (Promega) luminescence-based assay in which luminescence is inversely related to kinase activity and […] was used as previously described.
# [5] = test system: T. gondii RH strain expressing β-galactosidase, parental; test: Proliferation EC50, β-galactosidase readout, parental strain; format: cell-based; details: Toxoplasma gondii, 72 h, read-out: T. gondii EC50 (±SD) CONTROL
# [6] = test system: P. falciparum T618Q asexual stage parasites; test: Growth inhibition assay, asexual stage parasites expressing PfPKG T618Q; format: cell-based; details: Plasmodium falciparum, 72 h, read-out: P. falciparum EC50 (±SD) T618Q
# Procedure: as §4
# [7] = test system: T. gondii tachyzoites expressing TgCDPK1 G128M; TgMAPKL-1 L162Q; test: Proliferation EC50, host fibroblast nuclei count, double mutant; format: cell-based; details: Toxoplasma gondii, Fibroblast, read-out: T. gondii EC50 (±SD) CDPK1 G128M; MAPKL1 L162Q
# Procedure: as §1, §2, §3
# [8] = test system: T. gondii tachyzoites expressing TgCDPK1 G128M; test: Proliferation EC50, host fibroblast nuclei count, TgCDPK1 G128M mutant; format: cell-based
# Procedure: as §1, §2, §3
# [9] = test system: T. gondii tachyzoites expressing TgPKG T761Q; test: Proliferation EC50, host fibroblast nuclei count, TgPKG T761Q mutant; format: cell-based
# Procedure: as §1, §2, §3
# PfCDPK1 = molecular target: T3, PfCDPK1 (Plasmodium falciparum, UniProt P62344); test: CDPK enzyme activity assay, PfCDPK1; format: biochemical, P. falciparum
# T3 construct: made in house
# T3 sequence (P62344 whole entry): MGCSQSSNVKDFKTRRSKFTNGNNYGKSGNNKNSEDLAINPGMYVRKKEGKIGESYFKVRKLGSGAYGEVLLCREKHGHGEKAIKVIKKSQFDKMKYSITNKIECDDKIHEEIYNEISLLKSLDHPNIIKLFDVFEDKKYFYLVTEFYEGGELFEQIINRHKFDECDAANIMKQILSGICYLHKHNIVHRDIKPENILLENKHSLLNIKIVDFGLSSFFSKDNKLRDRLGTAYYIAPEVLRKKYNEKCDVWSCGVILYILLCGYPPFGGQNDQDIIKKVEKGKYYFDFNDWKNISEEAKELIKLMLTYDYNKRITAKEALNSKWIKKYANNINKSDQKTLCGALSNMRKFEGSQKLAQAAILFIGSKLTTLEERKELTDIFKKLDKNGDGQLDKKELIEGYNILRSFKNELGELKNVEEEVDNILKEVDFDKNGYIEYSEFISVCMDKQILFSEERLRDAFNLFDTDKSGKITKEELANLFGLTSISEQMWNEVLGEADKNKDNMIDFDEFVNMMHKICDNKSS
# Procedure: as §5
# TgCDPK1 WT = molecular target: T4, TgCDPK1 WT (Toxoplasma gondii, UniProt Q9BJF5); test: biochemical
# T4 sequence (Q9BJF5 1-507): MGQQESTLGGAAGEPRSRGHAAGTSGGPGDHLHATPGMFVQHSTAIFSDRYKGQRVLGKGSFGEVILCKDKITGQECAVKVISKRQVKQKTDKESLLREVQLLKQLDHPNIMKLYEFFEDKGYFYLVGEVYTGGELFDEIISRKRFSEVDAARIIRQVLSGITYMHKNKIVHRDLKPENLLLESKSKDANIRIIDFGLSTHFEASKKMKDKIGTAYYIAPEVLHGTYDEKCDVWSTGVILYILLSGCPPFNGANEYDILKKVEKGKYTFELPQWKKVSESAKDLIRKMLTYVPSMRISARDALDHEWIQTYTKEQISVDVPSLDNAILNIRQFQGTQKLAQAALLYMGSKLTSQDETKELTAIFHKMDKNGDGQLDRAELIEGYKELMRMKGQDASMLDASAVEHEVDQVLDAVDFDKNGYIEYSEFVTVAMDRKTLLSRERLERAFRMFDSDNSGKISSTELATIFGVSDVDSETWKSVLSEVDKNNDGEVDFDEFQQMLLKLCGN
# Procedure: as §5
# CpCDPK1 = molecular target: T5, CpCDPK1 (Cryptosporidium parvum, UniProt A3FQ16); test: CDPK enzyme activity assay, CpCDPK1 WT; format: biochemical, C. parvum
# T5 construct: made in house
# T5 sequence (A3FQ16 1-538): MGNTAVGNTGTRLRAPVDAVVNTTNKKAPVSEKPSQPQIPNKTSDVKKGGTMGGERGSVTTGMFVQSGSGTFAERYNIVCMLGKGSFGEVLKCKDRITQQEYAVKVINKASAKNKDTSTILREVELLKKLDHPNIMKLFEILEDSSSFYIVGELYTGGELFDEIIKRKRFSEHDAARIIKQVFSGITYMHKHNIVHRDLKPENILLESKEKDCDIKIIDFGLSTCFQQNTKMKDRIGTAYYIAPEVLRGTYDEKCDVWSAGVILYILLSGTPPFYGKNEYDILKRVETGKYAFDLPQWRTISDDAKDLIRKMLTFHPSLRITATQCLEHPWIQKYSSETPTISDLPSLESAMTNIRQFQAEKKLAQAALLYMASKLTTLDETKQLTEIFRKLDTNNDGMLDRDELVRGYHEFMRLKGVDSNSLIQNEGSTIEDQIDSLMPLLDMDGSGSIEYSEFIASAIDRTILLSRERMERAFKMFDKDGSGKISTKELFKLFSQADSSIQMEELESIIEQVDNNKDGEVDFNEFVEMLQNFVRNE
# Procedure: as §5
# [10] = test system: T. gondii RH strain with L162Q substitution in TgMAPKL1; test: Proliferation EC50, β-galactosidase readout, TgMAPKL1 L162Q; format: cell-based
# Procedure: as §1
# An RH strain of with an L162Q substitution in TgMAPKL1 introduced by CRISPR/Cas9 site directed mutagenesis into a clone expressing β-galactosidase was used to determine the EC50s for proliferation. Compounds were dissolved in DMSO and serially diluted 4-fold across the first 11 columns of a 96 well plate from the highest concentration of 25 μM leaving the final column with no drugs. was added to the first 11 columns of the 96 well plate at 4000 parasites per well. The last column contained no compound. Plates were incubated 72 h at 37 °C and 5% CO2. were quantified by spectrophotometrically measuring the β-galactosidase concentration of each well after cell lysis and exposure to chlorophenol red β-galactopyranose (Sigma-Aldrich, St. Louis, MO) substrate. Each compound was tested at least three times in quadruplicate.
# PfPKG [11] = molecular target: T1, PfPKG; test: PfPKG enzyme activity assay, recombinant WT; format: biochemical; details: recombinant enzyme; ADP-Glo assay; mean ± SD, n = 2–3 experiments; read-out: enzyme IC50 (±SD) PfPKG WT
# Procedure: (§6) Direct inhibition of recombinant PfPKG phosphorylation activity was carried out using a previously described nonradioactive assay. The assay evaluates PfPKG activity based on changes in initial ATP concentration via luminescence after enzyme phosphorylation of peptide substrate PKCtide ([…]) (SignalChem, Richmond, BC Canada). Enzyme kinase activity was measured in the presence of 26 μM PKCtide; 50.1 nM PfPKG; and 20 μM cGMP in a buffered solution containing 20 mM β-glycerol-phosphate, 20 mM MgCl2, 25 mM HEPES pH 7.5 (KOH), 0.1% BSA and 2 mM DTT. The reaction was activated by the addition of 10 μM ATP with incubation at 30 °C and 90 rpm agitation for 120 min. […] Each assay plate contained reaction wells with no enzyme, no PKCtide peptide substrate and no cGMP as internal controls.
# CpCDPK1-G152M = molecular target: T6, CpCDPK1-G152M (Cryptosporidium parvum, UniProt A3FQ16, G152M); test: CDPK enzyme activity assay, CpCDPK1 G152M; format: biochemical, C. parvum
# T6 construct: made in house
# T6 sequence (A3FQ16 whole entry G152M): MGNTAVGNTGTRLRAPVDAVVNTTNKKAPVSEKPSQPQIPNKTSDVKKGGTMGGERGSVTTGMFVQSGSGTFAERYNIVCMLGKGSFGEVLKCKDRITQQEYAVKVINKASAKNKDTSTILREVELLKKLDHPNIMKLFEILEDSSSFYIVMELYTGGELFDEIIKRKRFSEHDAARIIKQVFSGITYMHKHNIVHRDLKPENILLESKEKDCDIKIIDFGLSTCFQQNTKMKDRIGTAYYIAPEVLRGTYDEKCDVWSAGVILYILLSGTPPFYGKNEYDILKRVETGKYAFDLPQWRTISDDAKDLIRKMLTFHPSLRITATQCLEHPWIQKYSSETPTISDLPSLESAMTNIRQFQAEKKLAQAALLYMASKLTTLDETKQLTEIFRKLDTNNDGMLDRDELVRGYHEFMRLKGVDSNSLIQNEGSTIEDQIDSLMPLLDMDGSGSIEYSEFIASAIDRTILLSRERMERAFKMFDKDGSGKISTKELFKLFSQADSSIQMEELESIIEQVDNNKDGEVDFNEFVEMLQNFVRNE
# Procedure: as §5
# PfPKG T618Q = PfPKG T618Q (Plasmodium falciparum, UniProt Q8I719, T618Q); test: PfPKG enzyme activity assay, T618Q gatekeeper mutant; format: biochemical, P. falciparum
# PfPKG T618Q, sequence (Q8I719 whole entry T618Q): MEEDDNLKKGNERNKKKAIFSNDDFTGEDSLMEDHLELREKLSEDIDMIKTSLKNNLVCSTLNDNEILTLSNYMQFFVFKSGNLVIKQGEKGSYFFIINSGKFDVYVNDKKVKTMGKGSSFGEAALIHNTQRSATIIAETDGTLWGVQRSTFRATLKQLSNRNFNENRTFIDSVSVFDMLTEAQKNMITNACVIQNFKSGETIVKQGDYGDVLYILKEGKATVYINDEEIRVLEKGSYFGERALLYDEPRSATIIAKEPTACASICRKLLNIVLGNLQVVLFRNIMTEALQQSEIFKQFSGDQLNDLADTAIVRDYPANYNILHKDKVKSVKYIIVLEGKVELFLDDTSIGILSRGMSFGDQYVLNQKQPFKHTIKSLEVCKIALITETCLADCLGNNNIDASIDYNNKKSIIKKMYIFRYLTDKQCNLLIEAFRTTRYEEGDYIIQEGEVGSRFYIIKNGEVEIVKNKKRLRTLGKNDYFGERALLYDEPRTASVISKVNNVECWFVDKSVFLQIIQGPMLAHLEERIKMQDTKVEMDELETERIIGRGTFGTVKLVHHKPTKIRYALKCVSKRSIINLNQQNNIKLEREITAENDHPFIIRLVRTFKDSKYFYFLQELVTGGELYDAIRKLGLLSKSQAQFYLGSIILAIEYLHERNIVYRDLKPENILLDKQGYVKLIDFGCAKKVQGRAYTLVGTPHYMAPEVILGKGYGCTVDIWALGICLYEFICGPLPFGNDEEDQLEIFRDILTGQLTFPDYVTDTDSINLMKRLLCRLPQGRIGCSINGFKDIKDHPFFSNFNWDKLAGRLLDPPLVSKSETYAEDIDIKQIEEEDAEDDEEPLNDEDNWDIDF
# Procedure: as §6
# PfCDPK4 = molecular target: T7, PfCDPK4 (Plasmodium falciparum, UniProt Q8IBS5); test: CDPK enzyme activity assay, PfCDPK4; format: biochemical, P. falciparum
# T7 construct: made in house
# T7 sequence (Q8IBS5 whole entry): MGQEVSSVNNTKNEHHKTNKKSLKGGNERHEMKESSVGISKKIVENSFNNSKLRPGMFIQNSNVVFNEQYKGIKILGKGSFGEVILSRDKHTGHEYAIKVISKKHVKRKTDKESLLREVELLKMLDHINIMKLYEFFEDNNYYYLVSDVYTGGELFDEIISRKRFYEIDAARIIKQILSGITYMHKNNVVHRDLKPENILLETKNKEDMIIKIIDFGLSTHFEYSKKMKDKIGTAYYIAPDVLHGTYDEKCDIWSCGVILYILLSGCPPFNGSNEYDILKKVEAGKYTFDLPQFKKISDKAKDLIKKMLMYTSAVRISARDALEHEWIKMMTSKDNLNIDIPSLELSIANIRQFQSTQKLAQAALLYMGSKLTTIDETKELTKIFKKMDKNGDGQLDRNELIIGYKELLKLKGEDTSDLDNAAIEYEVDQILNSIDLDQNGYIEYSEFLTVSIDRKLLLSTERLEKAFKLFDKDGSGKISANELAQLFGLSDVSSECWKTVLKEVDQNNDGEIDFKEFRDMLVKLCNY
# Procedure: as §5
# T1 sequence (Q8I719 whole entry): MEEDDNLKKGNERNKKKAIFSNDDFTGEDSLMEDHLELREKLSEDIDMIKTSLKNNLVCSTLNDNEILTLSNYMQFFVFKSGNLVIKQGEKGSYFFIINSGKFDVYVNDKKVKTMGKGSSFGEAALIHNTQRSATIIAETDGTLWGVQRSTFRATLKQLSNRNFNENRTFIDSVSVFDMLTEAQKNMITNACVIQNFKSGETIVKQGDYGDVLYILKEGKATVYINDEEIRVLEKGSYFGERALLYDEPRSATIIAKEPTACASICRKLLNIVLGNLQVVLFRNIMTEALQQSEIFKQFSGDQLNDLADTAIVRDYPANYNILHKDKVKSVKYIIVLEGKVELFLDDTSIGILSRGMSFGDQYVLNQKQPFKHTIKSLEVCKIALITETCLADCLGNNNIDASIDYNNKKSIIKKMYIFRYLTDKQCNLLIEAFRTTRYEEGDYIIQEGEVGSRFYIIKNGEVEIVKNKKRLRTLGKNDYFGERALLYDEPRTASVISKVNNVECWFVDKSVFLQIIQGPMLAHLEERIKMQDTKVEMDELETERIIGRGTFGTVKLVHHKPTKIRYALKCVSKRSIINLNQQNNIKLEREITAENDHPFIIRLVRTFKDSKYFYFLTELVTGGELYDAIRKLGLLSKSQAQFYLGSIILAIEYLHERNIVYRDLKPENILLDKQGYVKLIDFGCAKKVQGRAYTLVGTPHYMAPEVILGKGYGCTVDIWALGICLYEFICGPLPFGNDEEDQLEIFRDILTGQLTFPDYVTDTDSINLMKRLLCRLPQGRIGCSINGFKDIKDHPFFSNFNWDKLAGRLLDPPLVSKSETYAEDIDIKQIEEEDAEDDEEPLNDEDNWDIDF
structure (smiles),measurement,setting,value
O=C(c1nccs1)N1CC[C@H](Nc2nccc(-n3cc(C4CC4)nc3-c3ccccc3)n2)C1 [(S)-RY-1-165],PfPKG inhibition (in words),PfPKG [1],inactive
O=C(c1nccs1)N1CC[C@@H](Nc2nccc(-n3cc(C4CC4)nc3-c3ccccc3)n2)C1 [(R)-RY-1-165],EC50,"[2]; read-out: T. gondii EC50 (±SD) CONTROL, tachyzoites, parental control of CDPK1 G128M, mean ± SD, n = 3–5",860 nM
same,EC50,"[2]; read-out: T. gondii EC50 (±SD) CONTROL, tachyzoites, parental control of PKG T761Q, mean ± SD, n = 3–5",260 nM
same,EC50,"[2]; read-out: T. gondii EC50 (±SD) CONTROL, tachyzoites, parental control of the double mutant, mean ± SD, n = 3–5",540 nM
same,EC50,[3],11000 nM
same,EC50,[4],17900 nM
same,IC50,TgCDPK1-G128M,> 30000 nM
same,TgCDPK1 G128M mutant enzyme less sensitive,TgCDPK1-G128M; G128M versus WT enzyme,at least 500 fold
same,EC50,[5],530 nM
same,EC50,[6],13400 nM
same,EC50,[7],1570 nM
same,EC50 for G128M parasites higher compared to the parental strain,[8]; TgCDPK1 G128M versus parental,1.7 fold
same,EC50,"[8]; Toxoplasma gondii, Fibroblast, read-out: T. gondii EC50 (±SD) CDPK1 G128M",1530 nM
same,EC50,"[9]; Toxoplasma gondii, Fibroblast, read-out: T. gondii EC50 (±SD) PKGT761Q",390 nM
same,"change in relative EC50, T761Q parasites versus parental controls",[9]; in 2 experiments,no change
same,increase in EC50 against T761Q parasites relative to parental controls,[9]; in 3 experiments,1.8–2.8 fold
same,IC50,PfCDPK1,10100 nM
same,IC50,TgCDPK1 WT,50 nM
same,IC50 for TgCDPK1 lower than for PfCDPK4,"TgCDPK1 WT; TgCDPK1 versus PfCDPK4, 90 min",over 30 fold
same,IC50,CpCDPK1,170 nM
same,increase in EC50 against TgMAPKL-1 L162Q parasites versus parental strain,[10],did not demonstrate a significant change in EC50
same,EC50,"[10]; Toxoplasma gondii, 72 h, read-out: T. gondii EC50 (±SD) MAPKL1 L162Q",560 nM
same,IC50,PfPKG [11],240 nM
same,IC50,CpCDPK1-G152M,> 30000 nM
same,CpCDPK1 G152M mutant enzyme less sensitive,CpCDPK1-G152M; G152M versus WT enzyme,at least 175 ×
same,IC50,PfPKG T618Q,> 10000 nM
same,IC50,PfCDPK4,1700 nM
